For experiment [1], the system named is WI-38 IR-SCs. Put plainly: Combination treatment cell viability and coefficient of drug interaction (CDI). The class given is cell-based, human. The note with it: 72 h. As for the experimental part: Number of viable cells were quantified using flow cytometry as previously described with slight modifications. Specifically, NCs and SCs were incubated with vehicle (0.1% DMSO) or a test compound at indicated concentrations for 72 h. Following dissociation with 0.25% Trypsin-EDTA (Cat. No. 25200056, Thermo Fisher Scientific, Waltham, MA, USA) at 37°C for 5 min, the cells were harvested in 100 µl pre-cooled phosphate buffered saline (PBS, Cat. No. 20012027, Thermo Fisher Scientific, Waltham, MA, USA) containing 2% FBS and 100 ng/mL propidium iodide (PI, P4170, Sigma-Aldrich, St. Louis, MO, USA) and analyzed using flow cytometry (LSR II, BD Biosciences, San Jose, CA, USA). Percentage of viable cells were determined by counting the number of PI negative cells (viable cells) and then calculated as a ratio of control cells treated with vehicle. In addition, dose-response curves were generated for each compound, and the concentration for 50% of maximal effect (EC50 values) was calculated using GraphPad Prism 6.
The data were analyzed by analysis of variance (ANOVA) with GraphPad Prism 6 (GraphPad Software, La Jolla, CA, USA). […] To detect the synergistic senolytic activities of EF24 and ABT263, CDI was calculated as previously described.

For the next experiment, the system named is HUVEC IR-SCs. Put plainly: Cell viability assay (flow cytometry, PI). The class given is cell-based. The note with it: Homo sapiens, 72 h. (In general: In flow cytometry, cells or beads pass a laser one at a time.)
For another experiment, the system named is cancer cells. Also noted: method as in PMID 15210154. Particulars: more potent than curcumin; cited from earlier work.
Another experiment deals with pre-adipocytes IR-SCs. Put plainly: Cell viability assay (flow cytometry, PI). It is filed as cell-based. The note with it: Homo sapiens; Pre-adipocyte, 72 h.
Experiment [2] deals with IMR-90 fibroblasts IR-SCs. In words: Cell viability assay (flow cytometry, PI). It is filed as cell-based. The note with it: Homo sapiens, IMR-90, 72 h.
The subject of the next experiment is WI-38 NCs. In words: ROS measurement (DHR staining, flow cytometry). It is filed as cell-based, human. Particulars: 2 µM, 3 h and 6 h, DHR MFI. Here is the method:
(§1) WI-38 NCs and IR-SCs were incubated with vehicle or 2 µM EF24 for 3, 6, 24, or 72 h. After removal of suspension cells, adherent cells were detached using 0.25% Trypsin-EDTA at 37°C for 5 min. They were rinsed with DMEM once and then incubated with pre-warmed DMEM medium containing 1 µM dihydrorhodamine 123 (DHR, Cat. No. D23806, Thermo Fisher Scientific, Waltham, MA, USA) at 37°C for 30 min in dark. After washing in 4 mL DMEM with 100 ng/mL PI, cells were centrifuged immediately at 1,000 r.p.m. for 5 min to remove PI and re-suspended in DMEM medium for flow cytometry analysis. Mean fluorescence intensity (MFI) of PI negative cells was determined using the BD LSR II flow cytometer.

Experiment [3] concerns WI-38 IR-SCs. In words: ROS measurement (DHR staining, flow cytometry). It is filed as cell-based, human. Particulars: 2 µM, 3 h and 6 h, DHR MFI. Here is the method:
as §1

Experiment [4] has as its system BCL-XL, MCL-1 and BCL-2 mRNA. In words: qPCR of mRNA levels in WI-38 cells. It is filed as cell-based, human. Particulars: WI-38 NCs and IR-SCs, 72 h. Here is the method:
The mRNA levels were measured with qPCR, as previously described. qPCR was run with TaqMan qPCR (Cat. No. 4444965, Thermo Fisher Scientific, Waltham, MA, USA) reagents and primers (Cat. No. 4331182, Thermo Fisher Scientific, Waltham, MA, USA).

For the next experiment, the system named is Mcl-1. Put plainly: Western blotting of protein expression in WI-38 cells. The class given is cell-based, human. Particulars: WI-38 IR-SCs, 0.5, 1 and 2 µM, 72 h. As for the experimental part:
(§2) After treatment with vehicle or EF24 at 0.5, 1 and 2 µM for 72 h, WI-38 NCs or IR-SCs were harvested in 1.5mL microcentrifuge tubes, and lysed in RIPA buffer with EDTA and EGTA (Cat. No. BP-115DG, Boston BioProducts, Ashland, MA, USA) supplemented with 1% protease inhibitor cocktail (Cat. No. P8340, Sigma-Aldrich, St. Louis, MO, USA) and 1% phosphatase inhibitor cocktail (Cat. No. P0044, Sigma-Aldrich, St. Louis, MO, USA). An equal amount of protein (30 µg/lane) from each cell extract was resolved on a precast gel (Mini-PROTEAN TGX™, Cat. No. 456-1094, Bio-Rad, Hercules, CA, USA). Proteins were blotted to a precut 0.2 µm PVDF membrane (Invitrolon™, Cat. No. LC2002, Life Technologies, Carlsbad, CA, USA) by electrophoresis. The membranes were blocked with 1X TBS-Tween (TBST, Cat. No. J77500, Affymetrix, Santan Clara, CA, USA) containing 5% non-fat dry milk (Cat. No. sc-2324, Santa Cruz Biotechnology, Dallas, TX, USA), and subsequently probed with primary antibodies at a predetermined optimal concentration overnight at 4°C. The primary antibodies including Bcl-xl (Cat. No. 2762), Mcl-1 (Cat. No. 5453), and Bcl-2 (Cat. No. 2872) and β-actin (Cat. No. 4970) were purchased from Cell Signaling Technology (Danvers, MA, USA). After washing with TBST for 3 times (10 min each time), the membranes were incubated with the secondary horse radish peroxidase (HRP)-linked antibody (Cat. No. 7074, Cell Signaling Technology, Danvers, MA, USA) for 2 h at room temperature. Following sufficient washing with TBST, the membranes were incubated with chemiluminescent HRP substrate (Immobilon™ Western, Cat. No. P36599, MilliporeSigma, Billerica, MA, USA) that consists of equal volume of luminol reagent and peroxide solution. The blotting membranes were recorded using autoradiography (SRX-101, Konica, Shinjuku, Tokyo, Japan). For the proteasome inhibition experiment, IR-SCs were treated with vehicle (0.1% DMSO) or 1 µM MG132 (Cat. No. S2619, Selleckchem, Houston, TX, USA) for 1 h prior to the incubation with EF24 at 0, 0.5, 1 and 2 µM for 72h.
(In general: In western blotting, separated proteins are transferred to a membrane and probed.)

A further experiment has as its system Bcl-xl. The experiment is described as above. The note with it: 72 h. The class given is cell-based, human. Here is the method:
as §2

The subject of the next experiment is Bcl-2. Described as above. Particulars: WI-38 IR-SCs, 0.5, 1 and 2 µM, 72 h; did not reach statistical significance. The class given is cell-based, human. As for the experimental part:
as §2

The pEC50 is the negative decadic logarithm of the EC50, by convention in mol/L. A higher pEC50 goes with a small EC50.

Structures are written as SMILES. pEC50: −log10 of the molar value.

With `O=C1/C(=C/c2ccccc2F)CNC/C1=C\c1ccccc1F` [EF24], in the experiment on WI-38 IR-SCs [1], the “cell viability of IR-SCs, agent alone” value was “dose-dependently reduce”. Also, the results for the negative-log EC50 (pEC50) (in the experiment with HUVEC IR-SCs; in the experiment with pre-adipocytes IR-SCs; in experiment [2]) were 5.68, 5.30 and 5.76, respectively. Besides, the “potency in inducing cancer cell death relative to curcumin” value in the experiment on cancer cells was 10 fold. For the same compound, in the experiment with WI-38 NCs, the “ROS production in NCs” value is given as “did not increase ROS production”. In the experiment with WI-38 IR-SCs [3], the “ROS production in IR-SCs” value is listed as “did not increase ROS production”. Further, the “BCL-XL, MCL-1 and BCL-2 mRNA levels” value in experiment [4] is “did not observe any significant changes”. The “expression of Mcl-1 in IR-SCs” value in the experiment on Mcl-1 is listed as “significantly reduce”. The “expression of Bcl-xl in IR-SCs” value in the experiment with Bcl-xl (WI-38 IR-SCs, 0.5, 1 and 2 µM) is “significantly reduce”. Further, the “expression of Bcl-xl in NCs” value in the experiment with Bcl-xl (WI-38 NCs, 0.5, 1 and 2 µM) is on record as “not in NCs”. The “levels of Bcl-2 in IR-SCs” value in the experiment on Bcl-2 is reported as “slightly reduced”.

Values taken from PMC6366974, “The curcumin analog EF24 is a novel senolytic agent” (Aging (Albany NY), 2019).
